Experimental findings from PubChem BioAssay (NCI) are described below.

Common to all, as to assay: inhibition of tumour cell growth, NCI panel, 48 h
The test system of test [1] is BT-549 breast.
Test [2] relates to EKVX NSCLC.
Test [3] deals with MDA-MB-435.
Test [4] has as its system NCI-H522 lung.
For test [5], the system named is OVCAR-3 ovarian.
Test [6] relates to SK-MEL-28 melanoma.
The test system of test [7] is SN12C renal.
In test [8] the test system is U251 CNS.
For test [9], the system named is A498 renal.
Test [10] concerns NCI-H226 lung.

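These data come from cells grown in 96-well plates and exposed to compound for 48 hours at five concentrations. GI50 is the concentration that inhibits growth by half. TGI: total growth inhibition.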

Take `O=C(NC(=S)NS(=O)(=O)c1ccc(N2N=C3c4ccccc4CC3C2c2cccs2)cc1)c1ccccc1` (stereo unspecified): the GI50 was 21.6 µM in test [1]; 19.6 µM in test [2]; 21.7 µM in [3]; 20.5 µM in test [4]; 30.6 µM in test [5]; 84 µM in [6]. For the same molecule, the GI50 in test [7] was 26 µM; in [8], 20.1 µM. Besides, the TGI in test [1] was more than 100 µM; in test [2] it was more than 100 µM; in test [3] it was 60.6 µM; in test [4] it was 80.9 µM; in test [5], more than 100 µM; in [6], more than 100 µM. The values for the TGI in test [7] and in test [8] were 96.9 µM and 82.3 µM, respectively.
`CCOc1ccc2c(c1)/C(=C\C=C\C1CC(C)C3CC(OCC)CCC3N1CC)CC(C)N2CC` (stereo unspecified): the GI50 in test [9] was 0.378 µM; in [1] it was 0.906 µM; in [3], 0.905 µM; in test [10] it was 1.06 µM; in test [4], 0.852 µM; in test [5], 0.915 µM. Also, the GI50 in test [6] is 1.36 µM; in test [7], 0.471 µM; in test [8] it was 0.38 µM. Also, the TGI in test [9] is 1.83 µM; in [1], 2.46 µM; in test [3] it was 2.31 µM; in [10], 2.79 µM; in [4] it was 3.08 µM; in [5], 2.2 µM. The TGI turned out to be 2.86 µM in [6], 1.81 µM in test [7] and 1.51 µM in test [8].
With `CN(C)/[N+]([O-])=N/Oc1cc(Nc2ccc(C(=O)O)cc2)c([N+](=O)[O-])cc1[N+](=O)[O-]`, the GI50 was 18.5 µM in test [1]; 20.1 µM in test [2]; 19.8 µM in [3]; 27.4 µM in [10]; 28.5 µM in test [4]; 30.7 µM in [6]. Also, the GI50 in test [7] is 18.6 µM; in test [8], 19.3 µM. In addition, the TGI was 34.6 µM in test [1]; 46.8 µM in [2]; 39.2 µM in test [3]; 70.4 µM in test [10]; more than 100 µM in test [4]; 57.5 µM in [6]. The TGI was found to be 33.6 µM in test [7] and 33.5 µM in test [8].
Consider `CCCCOC(=O)N[C@H]1CCc2cc(OC)c(OC)c(OC)c2-c2ccc(SC)c(=O)cc21`, for which the TGI was 27.6 µM in test [9]; more than 100 µM in test [2]; less than 0.01 µM in [3]; 0.357 µM in test [10]; less than 0.01 µM in test [4]; less than 0.0329 µM in test [5]. In addition, the TGI in [6] was 16.2 µM; in test [7], 34.2 µM; in test [8] it was 3.87 µM.
Regarding `N#Cc1c2ccccc2c2nnc3cc(Cl)c(Cl)cc3n12`, the GI50 in test [9] was 56.6 µM; in [1], 60.9 µM; in test [2], 48.6 µM; in test [3], more than 100 µM; in test [4] it was 39.2 µM; in test [5] it was 33.1 µM. Also, the GI50 in test [7] was 23 µM; in test [8], 50.7 µM. Also, the TGI is more than 100 µM in [9]; more than 100 µM in test [1]; more than 100 µM in test [2]; more than 100 µM in [3]; more than 100 µM in [4]; 95.9 µM in test [5]. Moreover, the TGI in [7] was 61.6 µM; in test [8] it was more than 100 µM.
As for `CCN1C(=O)N(c2c(F)c(OC)cc(OC)c2F)Cc2cnc3[nH]c(CN4CCOCC4)cc3c21`, the GI50 in test [1] is 0.0491 µM; in [2], 9.49 µM; in test [3], 4.65 µM; in test [10], 0.8 µM; in [4], 3.12 µM; in [5], 5.73 µM. The GI50 was 8.06 µM in test [6], 2.78 µM in test [7] and 2.75 µM in test [8]. In addition, the TGI in test [1] was 15.7 µM; in [2], more than 100 µM; in [3], more than 100 µM; in test [10] it was more than 100 µM; in test [4] it was more than 100 µM; in [5] it was more than 100 µM. For the same molecule, the TGI in [6] is more than 100 µM; in [7], 28.2 µM; in [8], more than 100 µM.
As for `COc1cc(/C=C/C(=O)c2ccc(Nc3nc(Nc4ccc(F)cc4)nc(Nc4ccc(F)cc4)n3)cc2)cc(OC)c1OC`, the GI50 in test [9] is 15.7 µM; in test [2], 59.1 µM; in [3], 17.1 µM; in test [10], 3.8 µM; in test [4], 3.1 µM; in test [5] it was more than 100 µM. Further, the GI50 was 26.7 µM in test [6], 33.6 µM in test [7] and 7.92 µM in test [8]. Also, the TGI in test [9] was 49 µM; in test [2] it was more than 100 µM; in test [3] it was more than 100 µM; in test [10], 29.3 µM; in test [4], more than 100 µM; in [5], more than 100 µM. Besides, the TGI in test [6], in test [7] and in test [8] was more than 100 µM each time.
For the molecule `CCCNc1nc(-c2ccc(OC)cc2)nc2ccccc12`, the GI50 was 11.9 µM in test [9]; 14.5 µM in test [3]; 16.1 µM in [10]; 22.3 µM in [4]; 11.8 µM in test [5]; 18.6 µM in test [6]. The GI50 in [7] was 20.2 µM; in test [8], 16.7 µM. For the same molecule, the TGI in [9] is 25 µM; in [3], 29.2 µM; in test [10], 41.9 µM; in test [4], more than 100 µM; in [5], 26.9 µM; in [6] it was 53.6 µM. Also, the values for the TGI in [7] and in test [8] were 46.1 µM and 37.8 µM, respectively.
As for `O=C(CC1C(=O)Nc2ccccc2S1=O)Nc1cccc(Cl)c1` (stereo unspecified), the TGI in test [9] is 47.3 µM; in test [1] it was 77.6 µM; in test [2] it was more than 87.4 µM; in [3] it was more than 100 µM; in test [10] it was more than 76.4 µM; in [5], more than 79.2 µM. The TGI in test [6], in test [7] and in test [8] was more than 100 µM each time.
Regarding `CC(=O)Nc1ccc(C(=O)N[C@@H]2C(=O)N3[C@@H]2SC(C)(C)[C@@H]3C(=O)O)cn1`, the TGI in [9], in test [1], in [2], in test [3], in test [10] and in test [5] was more than 100 µM each time. Further, the TGI in test [6], in test [7] and in [8] was more than 100 µM each time.
As for `N#C/C(=C/N1CCN(C(=O)c2ccco2)C1=S)C(N)=O`, the GI50 in test [1] was 22.5 µM; in test [2], 0.342 µM; in test [3], 14.6 µM; in [4], 18.7 µM; in test [5] it was 19 µM; in test [6], 15.8 µM. Moreover, the GI50 in test [7] is 12 µM; in test [8] it was 11.5 µM. Also, the TGI in [1] is 55.9 µM; in test [2], 0.982 µM; in test [3], 44.1 µM; in test [4] it was 44.2 µM; in test [5], 59.8 µM; in test [6] it was more than 100 µM. Besides, the TGI in test [7] came out at 32.2 µM; in test [8], 46.8 µM.
As for `Cc1cc(S(N)(=O)=O)c(S/C(=N\NS(=O)(=O)c2ccc(Cl)cc2)c2ccc(Cl)cc2)cc1Cl`, the GI50 was more than 100 µM in test [1]; more than 100 µM in [2]; more than 100 µM in test [3]; 92.4 µM in test [10]; more than 100 µM in test [4]; more than 100 µM in [5]. Also, the GI50 was more than 100 µM in test [6], more than 100 µM in [7] and 62.8 µM in test [8]. The TGI in test [1], in [2], in test [3], in test [10], in test [4] and in test [5] was more than 100 µM each time. Moreover, the TGI in test [6], in [7] and in test [8] was more than 100 µM throughout.
`Cc1ccc(/C=C2\CCOC2=O)cc1`: the GI50 in test [9] is 11.8 µM; in test [1] it was more than 100 µM; in test [10], more than 100 µM; in test [5] it was more than 100 µM; in test [6] it was more than 100 µM; in [7] it was more than 100 µM. The GI50 in test [8] is more than 100 µM. Further, the TGI is 97.3 µM in test [9]; more than 100 µM in [1]; more than 100 µM in test [10]; more than 100 µM in test [5]; more than 100 µM in test [6]; more than 100 µM in test [7]. For the same molecule, the TGI in test [8] is more than 100 µM.
`COc1nc2c(nc(N)n2C2OC(CO)C(O)C(O)C2O)c(=O)n1C` (stereo unspecified): the TGI in [9], in test [2], in test [10], in test [4], in test [5] and in [6] was more than 100 µM throughout. Moreover, the TGI in test [7] and in test [8] was more than 100 µM throughout.
